We go through 32 compounds from patent US10329302B2, “Bicyclic-fused heteroaryl or aryl compounds” (Pfizer Inc., priority 2014, dated 2019).

Test [1] deals with human IRAK4 FL (Full Length) (Homo sapiens (Human), UniProt Q9NWZ3). In words: IRAK4 Enzymatic DELFIA Assay, Protocol A. The settings on record: human IRAK4 FL, 0.6 mM ATP (KM); read-out: IRAK4 DELFIA Protocol A IC50. Type of test: biochemical.
Test [2] relates to R848-induced TNFα production by human peripheral blood mononuclear cells (PBMCs). Description: R848 Induced TNFα in Human PBMC Assay. It is filed as cell-based.
[3] abbreviates: Homo sapiens, PBMC, 3 h, read-out: R848-induced TNFa PBMC IC50 (nM).
Where [4] appears, read: human PBMC, absence of serum, 3 hours, read-out: R848-induced TNFa PBMC IC50.

Read-outs that look alike come from different tables or passages of the source.

Sequence of human IRAK4 FL (Full Length) (Q9NWZ3 whole entry): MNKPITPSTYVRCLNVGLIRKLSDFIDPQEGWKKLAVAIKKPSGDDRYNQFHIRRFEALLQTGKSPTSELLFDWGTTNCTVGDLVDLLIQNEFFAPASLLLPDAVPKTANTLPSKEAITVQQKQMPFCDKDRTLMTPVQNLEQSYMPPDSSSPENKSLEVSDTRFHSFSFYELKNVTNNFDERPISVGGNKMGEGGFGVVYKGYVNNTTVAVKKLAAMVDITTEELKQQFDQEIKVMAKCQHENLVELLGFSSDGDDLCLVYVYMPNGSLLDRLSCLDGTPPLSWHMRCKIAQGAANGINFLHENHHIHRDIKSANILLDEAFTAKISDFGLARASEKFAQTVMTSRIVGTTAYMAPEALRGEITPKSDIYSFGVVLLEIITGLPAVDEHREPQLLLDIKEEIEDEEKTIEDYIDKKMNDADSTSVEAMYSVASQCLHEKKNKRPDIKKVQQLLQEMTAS

Regarding `COc1cc2c(OC[C@H]3NC(=O)C(F)[C@H]3C)ccc(F)c2cc1C(N)=O` (stereo in doubt) [Example 220, 8-fluoro-5-{[(2S,3S,4S)-4-fluoro-3-methyl-5-oxopyrrolidin-2-yl]methoxy}-3-methoxynaphthalene-2-carboxamide], the results for the IC50 in test [1] and in test [2] (setting [3]) were 0.0009 µM and 14 nM, respectively. Take `COc1cc2c(OC[C@H]3NC(=O)[C@H]4C3[C@H]4F)nccc2cc1C(N)=O` (stereo in doubt) [Example 334, 1-(((1R,2S,5R,6R)-6-fluoro-4-oxo-3-azabicyclo[3.1.0]hexan-2-yl)methoxy)-7-methoxyisoquinoline-6-carboxamide]: the IC50 in test [1] amounted to 0.0042 µM; in test [2] (setting [3]), 1770 nM. On to `CC(C)Oc1cc2c(OC[C@@H]3CCC(=O)N3)nccc2cc1C#N` [Example 03, 1-{[(2S)-5-oxopyrrolidin-2-yl]methoxy}-7-(propan-2-yloxy)isoquinoline-6-carbonitrile], for which the figures for the IC50 in test [1] and in test [2] (setting [3]) were 0.575 µM and 2740 nM, respectively. In the case of `CC(C)Oc1cc2c(OC[C@@H]3COC(=O)N3)nccc2cc1C(N)=O` [Example 04, 1-{[(4R)-2-oxo-1,3-oxazolidin-4-yl]methoxy}-7-(propan-2-yloxy)isoquinoline-6-carboxamide], the values for the IC50 in test [1] and in test [2] (setting [3]) were 0.0066 µM and 1800 nM, respectively.

Regarding `CC(C)Oc1cc2c(OC[C@@H]3CCCC(=O)N3)nccc2cc1C(N)=O` [Example 06, 1-{[(2S)-6-oxopiperidin-2-yl]methoxy}-7-(propan-2-yloxy)isoquinoline-6-carboxamide], the IC50 turned out to be 0.051 µM in test [1] and 472 nM in test [2] (setting [3]).

With `CC(C)Oc1cc2c(OC[C@@H]3CC(C)(C)C(=O)N3)nccc2cc1C(N)=O` [Example 110, 1-{[(2S)-4,4-dimethyl-5-oxopyrrolidin-2-yl]methoxy}-7-(propan-2-yloxy)isoquinoline-6-carboxamide], the IC50 turned out to be 0.418 µM in test [1] and 1170 nM in test [2] (setting [3]). The like results for `CC(C)Oc1cc2c(OC[C@@H]3CC(F)C(=O)N3)nccc2cc1C(N)=O` (stereo partly drawn) [Example 112, 1-{[(2S)-4-fluoro-5-oxopyrrolidin-2-yl]methoxy}-7-(propan-2-yloxy)isoquinoline-6-carboxamide] were, in that order, 0.001 µM and 50 nM. Regarding `CC(C)Oc1cc2c(OC[C@@H]3CCC(=O)N3)cccc2cc1C(N)=O` [Example 114, 5-{[(2S)-5-oxopyrrolidin-2-yl]methoxy}-3-(propan-2-yloxy)naphthalene-2-carboxamide], the results for the IC50 in test [1] and in test [2] (setting [3]) were 0.0007 µM and 33 nM, respectively. As for `CC(C)Oc1cc2c(OC[C@@H]3C[C@@H](C)C(=O)N3)nccc2cc1C(N)=O` [Example 124, 1-{[(2S,4R)-4-methyl-5-oxopyrrolidin-2-yl]methoxy}-7-(propan-2-yloxy)isoquinoline-6-carboxamide], the half-inhibitory concentration (IC50) in test [1] was 0.0078 µM; in test [2] (setting [3]) it was 175 nM. The like results for `CC(C)Oc1cc2c(OC[C@@H]3C[C@H](C)C(=O)N3)nccc2cc1C(N)=O` [Example 125, 1-{[(2S,4S)-4-methyl-5-oxopyrrolidin-2-yl]methoxy}-7-(propan-2-yloxy)isoquinoline-6-carboxamide] were, in that order, 0.04 µM and 685 nM. For the compound `COCC1C[C@@H](COc2nccc3cc(C(N)=O)c(OC(C)C)cc23)NC1=O` (stereo partly drawn) [Example 127, 1-{[(2S)-4-(methoxymethyl)-5-oxopyrrolidin-2-yl]methoxy}-7-(propan-2-yloxy)isoquinoline-6-carboxamide], the IC50 was determined as 0.065 µM in test [1] and 682 nM in test [2] (setting [3]). The like results for `CC(C)Oc1cc2c(OC[C@@H]3CC(F)(F)C(=O)N3)nccc2cc1C(N)=O` [Example 128, 1-{[(2S)-4,4-difluoro-5-oxopyrrolidin-2-yl]methoxy}-7-(propan-2-yloxy)isoquinoline-6-carboxamide] were, in that order, 0.0003 µM and 27 nM. As to `CC[C@]1(F)C[C@@H](COc2nccc3cc(C(N)=O)c(OC(C)C)cc23)NC1=O` [Example 131, 1-{[(2S,4S)-4-ethyl-4-fluoro-5-oxopyrrolidin-2-yl]methoxy}-7-(propan-2-yloxy)isoquinoline-6-carboxamide], the IC50 in test [1] stood at 0.0006 µM; in test [2] (setting [3]), 29 nM.

`COc1cc2c(OC[C@@H]3C[C@@](F)(C4CCOCC4)C(=O)N3)nccc2cc1C(N)=O` [Example 284, 1-{[(2S,4R)-4-fluoro-5-oxo-4-(tetrahydro-2H-pyran-4-yl)pyrrolidin-2-yl]methoxy}-7-methoxyisoquinoline-6-carboxamide]: the IC50 in test [2] (setting [3]) worked out at 320 nM. On the same count and under the same terms, the same measure for `COc1cc2c(OC[C@@H]3C[C@@H](C4CCOCC4)C(=O)N3)nccc2cc1C(N)=O` [Example 286, 7-methoxy-1-{[(2S,4S)-5-oxo-4-(tetrahydro-2H-pyran-4-yl)pyrrolidin-2-yl]methoxy}isoquinoline-6-carboxamide]: 7020 nM; for `CCOc1cc2c(OC[C@@H]3C[C@](C)(F)C(=O)N3)ccnc2cc1C(N)=O` [Example 287, 6-ethoxy-4-{[(2S,4S)-4-fluoro-4-methyl-5-oxopyrrolidin-2-yl]methoxy}quinoline-7-carboxamide]: 2300 nM. For `COc1cc2c(OC[C@@H]3NC(=O)[C@H](F)[C@@H]3C)nccc2cc1C(N)=O` [Example 288, 1-{[(2R,3R,4R)-4-fluoro-3-methyl-5-oxopyrrolidin-2-yl]methoxy}-7-methoxyisoquinoline-6-carboxamide], the IC50 in test [2] (setting [3]) turned out to be 1810 nM. On the same count and under the same terms, to `COc1cc2c(OC[C@@H]3C[C@@H](C4(O)CCOCC4)C(=O)N3)nccc2cc1C(N)=O` [Example 289, 1-{[(2S,4S)-4-(4-hydroxytetrahydro-2H-pyran-4-yl)-5-oxopyrrolidin-2-yl]methoxy}-7-methoxyisoquinoline-6-carboxamide] belongs 6270 nM; to `COC[C@]1(F)C[C@@H](COc2nccc3cc(C(N)=O)c(OC)cc23)NC1=O` [Example 292, 1-{[(2S,4R)-4-fluoro-4-(methoxymethyl)-5-oxopyrrolidin-2-yl]methoxy}-7-methoxyisoquinoline-6-carboxamide], 3140 nM. Same read-out and setting: to `CCOc1cc2c(OC[C@@H]3C[C@@](F)(CF)C(=O)N3)ccnc2cc1C(N)=O` [Example 293, 6-ethoxy-4-{[(2S,4S)-4-fluoro-4-(fluoromethyl)-5-oxopyrrolidin-2-yl]methoxy}quinoline-7-carboxamide] belongs 462 nM; to `CCOc1cc2c(OC[C@@H]3C[C@@](F)(CF)C(=O)N3)nccc2cc1C(N)=O` [Example 294, 7-ethoxy-1-{[(2S,4S)-4-fluoro-4-(fluoromethyl)-5-oxopyrrolidin-2-yl]methoxy}isoquinoline-6-carboxamide], 24 nM. In the case of `COc1cc2c(OC[C@H]3NC(=O)[C@@H]4C[C@]34C)nccc2cc1C(N)=O` [Example 295, 7-methoxy-1-{[(1S,2S,5R)-1-methyl-4-oxo-3-azabicyclo[3.1.0]hex-2-yl]methoxy}isoquinoline-6-carboxamide], in test [2] (setting [3]), the IC50 stood at 67 nM. Same read-out and setting: the same measure for `COc1cc2c(OC[C@H]3NC(=O)[C@]4(C)C[C@H]34)nccc2cc1C(N)=O` [Example 297, 7-methoxy-1-{[(1S,2S,5R)-5-methyl-4-oxo-3-azabicyclo[3.1.0]hex-2-yl]methoxy}isoquinoline-6-carboxamide]: 7120 nM.

Turning to `CC[C@]12C[C@H]1C(=O)N[C@@H]2COc1nccc2cc(C(N)=O)c(OC)cc12` [Example 299, 1-{[(1S,2S,5R)-1-ethyl-4-oxo-3-azabicyclo[3.1.0]hex-2-yl]methoxy}-7-methoxyisoquinoline-6-carboxamide], the IC50 in test [2] (setting [3]) worked out at 49 nM. Same read-out and setting: to `CC[C@@H]1[C@H]2C(=O)N[C@H](COc3nccc4cc(C(N)=O)c(OC)cc34)[C@@H]12` [Example 300, 1-{[(1S,2S,5R)-6-ethyl-4-oxo-3-azabicyclo[3.1.0]hex-2-yl]methoxy}-7-methoxyisoquinoline-6-carboxamide] belongs 931 nM; to `COc1cc2c(OC[C@@H]3CCCC(=O)N3)nccc2cc1C(N)=O` [Example 302, 7-methoxy-1-{[(2S)-6-oxopiperidin-2-yl]methoxy}isoquinoline-6-carboxamide], 1280 nM; to `COc1cc2c(OC[C@H]3NC(=O)C[C@H]3C3CC3)nccc2cc1C(N)=O` [Example 305, 1-{[(2S,3S)-3-cyclopropyl-5-oxopyrrolidin-2-yl]methoxy}-7-methoxyisoquinoline-6-carboxamide], 57 nM. As for `COc1cc2c(OC[C@H]3NC(=O)[C@@H]4CC[C@H]34)nccc2cc1C(N)=O` [Example 308, 7-methoxy-1-{[(1S,2S,5R)-4-oxo-3-azabicyclo[3.2.0]hept-2-yl]methoxy}isoquinoline-6-carboxamide], the IC50 in test [2] (setting [3]) amounted to 134 nM. Take `[2H]C([2H])([2H])Oc1cc2c(OC[C@H]3NC(=O)[C@@H](F)[C@H]3CC)nccc2cc1C(N)=O` [Example 338, 1-{[(2S,3S,4S)-3-ethyl-4-fluoro-5-oxopyrrolidin-2-yl]methoxy}-7-[(trideutero)methyloxy]isoquinoline-6-carboxamide]: the IC50 in test [2] (setting [4]) was determined as 3 nM. With `[2H]C([2H])([2H])C([2H])([2H])[C@@H]1[C@H](F)C(=O)N[C@@H]1COc1nccc2cc(C(N)=O)c(OC)cc12` [Example 344, 1-{[(2S,3S,4S)-3-(pentadeutero)ethyl-4-fluoro-5-oxopyrrolidin-2-yl]methoxy}-7-methoxyisoquinoline-6-carboxamide], the IC50 in test [2] (setting [4]) was 0.5 nM. Same read-out and setting: to `CC[C@@H]1[C@@H](COc2nccc3cc(C(N)=O)c(OC)cc23)NC(=O)[C@@H]1F` [Example 346, 1-{[(2S,3R,4R)-3-ethyl-4-fluoro-5-oxopyrrolidin-2-yl]methoxy}-7-methoxyisoquinoline-6-carboxamide] belongs 150 nM. The same measure, in the same setting: to `[2H][C@]1(CC)[C@@H](COc2nccc3cc(C(N)=O)c(OC)cc23)NC(=O)[C@@]1([2H])F` [Example 374, 1-{[(2S,3S,4S)-3-ethyl-4-fluoro-5-oxo(3,4-bisdeutero)pyrrolidin-2-yl]methoxy}-7-methoxyisoquinoline-6-carboxamide] belongs 1.2 nM.

Broadly, the IC50 is the concentration that inhibits the measured activity by half.
